Source: patent US20080261986A1, “PHARMACEUTICAL FORMULATIONS FOR IONTOPHORETIC DELIVERY OF AN ANTI-FUNGAL DRUG” (priority 2007, published 2008)
Where a name gives a salt, the structure may show the parent alone.

What was measured:
[1] = Saturated solubility of terbinafine HCl in various solvents; format: physicochemical; conditions: thermodynamic from solid, n = 3
Experimental: In order to establish a suitable receiver fluid for use in permeation studies, the saturated solubility of terbinafine HCl at room temperature was determined in various solvents such as, water, phosphate buffered saline (PBS), PBS with 5% Tween-80 (PBS-T), citrate buffer and sodium phosphate buffer. The drug was added to each of the solvents until visual saturation was obtained and the mixtures were left at controlled temperature (19° C.) for 24 hours. The saturated drug solution was filtered and solubility of the drug was determined by UV spectrophotometer.

[2] = Permeation through and loading in human nail, Franz diffusion cell; format: in vitro ADME
Experimental: Permeation experiments were conducted using human nails to further validate iontophoretic delivery. In these experiments intact full thickness whole cadaver finger nail plates (˜0.5-0.7 mm thickness) were trimmed to appropriate disks and used. Prehydrated (in saline for 60 min) nail disks were sandwiched between the donor and receptor compartments of Franz diffusion cell (FDC) using a nail adaptor to conform to the curvature of the nail. Terbinafine hydrochloride (10 mg/mL) in water and Tween80 was used in the donor compartment, and acidified water used in the receptor. Current density of 0.5 mA/cm^2 was applied for 1 hr after which the receptor levels were measured for permeation of terbinafine hydrochloride through the nail using similar methods as described in Example 3B. Additionally, nail disks were analyzed (after 1 hr of iontophoresis or passive delivery) for drug in the nail using similar extraction methods as described as follows. […]
Permeation experiments were conducted using human nails as described in Example 4 but the effect of current duration was investigated. Current density of 0.5 mA/cm^2 was applied for either 15, 30, 45, or 60 minutes and the receptor levels analyzed for amount of terbinafine hydrochloride that permeated through the nail (μg/cm^2) immediately afterwards and compared to passively delivered nails.

[3] = Effect of Tween-20 and Tween-80 on terbinafine HCl solubility in water and PBS; format: physicochemical; conditions: thermodynamic from solid, n = 3
Experimental: The influence of Tween-20 and Tween-80 on terbinafine HCl solubility in water and PBS was determined. The drug was added to each of the solvents until visual saturation was obtained, then left at controlled temperature (19° C.) or 24 hours. The saturated solutions were filtered and drug solubility in the filtrate was determined by UV spectrophotometer.

[4] = Delivery from nail-only and nail and skin applicators, nail on agarose model; format: in vitro ADME; conditions: for nail loading range: Coulombic dose range 2-60 mA*min
Description: In the nail and skin applicator, the drug was delivered to both the nail and the skin (not shown). In the nail and skin applicator, the polyurethane foam and the active electrode (Ag-C) extended past the toe nail and onto agarose to mimic skin delivery. The agarose was covered with fluorinated ethylene propylene (FEP) membrane with uniform 0.5 mm holes distributed 5 mm apart to mimic the semi-restrictive property of the skin. […] The applicator extensions were adhered down to the base of the glass plate where the agarose was placed. The saline presoaked (1 hr) toe nail was placed on the curved agarose gel (1% w/v) with a counter electrode on the bottom of the agarose (standard EKG AgCl electrode with hydrogel, […]). […] Passive delivery was also run for 1 hr without current. […] The amount of drug permeated through the nail and into the agarose was determined by extracting terbinafine using 0.1M HCl and analyzing the samples by HPLC. Additional terbinafine HCl delivery testing using both types of applicators at different Coulombic doses were performed on the nail on agarose model. […] These additional doses, along with the higher 60 mA*min dose, were plotted as terbinafine loading (mg/g) with respect to Coulombic dose (FIG. 9F).

T. rubrum = conditions: quoted in the T. rubrum agar study, organism not given; cited from earlier work
[5] = Approximate visual solubility in receiver fluids; format: physicochemical; conditions: aqueous with cosolvent or surfactant or cyclodextrin, Approximate visual solubility
Experimental: The visual solubility of each receiver fluid shown in Table 3 below was initially tested for ketoconazole (BUFA B.V.) and ciclopirox (PCAS Finland Oy). Additional solubility testing was then conducted for terbinafine hydrochloride (QueMaCo Ltd.), amorolfine hydrochloride (Inter-Chemical Ltd.) and itraconazole EP (Shamrock, UK) and the results are shown in Table 3.
The solubility of terbinafine hydrochloride, fluconazole, itraconazole and amorolfine hydrochloride was determined in PBS and 5% Tween 80 and the results are summarized in Table 4.

CN(C/C=C/C#CC(C)(C)C)Cc1cccc2ccccc12 [terbinafine HCl, (E)-N-(6,6-dimethyl-2-hepten-4-ynyl)-N-methyl-1-naphthylmethamine hydrochloride]
solubility at 24 h ([1]; aqueous buffer, Citrate buffer, pH 5, 19° C.): 1810 µg/mL
solubility at 24 h ([1]; aqueous buffer, PBS, pH 7.4, 19° C.): 1320 µg/mL
solubility at 24 h ([1]; aqueous with cosolvent or surfactant or cyclodextrin, PBS-T (PBS with 5% Tween-80), pH 6.8, 19° C.): 6020 µg/mL
solubility at 24 h ([1]; Distilled water, pH 5.8, 19° C.): 6370 µg/mL
permeation through the nail and loading in the nail, iontophoresis versus passive ([2]; 10 mg/mL in water and Tween80, 0.5 mA/cm^2 for 1 hr): increases permeation through the nail and loading in the nail compared to passive delivery
iontophoretic permeation through the nail versus passive ([2]; 0.5 mA/cm^2 for 15, 30, 45, or 60 minutes): greater than passively delivered drug for all current durations tested
solubility at 24 h ([3]; aqueous buffer, PBS, 19° C.): 1320 µg/mL
solubility at 24 h ([3]; aqueous with cosolvent or surfactant or cyclodextrin, PBS and 5% Tween-20, 19° C.): 5220 ± 20 µg/mL
solubility at 24 h ([3]; aqueous with cosolvent or surfactant or cyclodextrin, PBS and 5% Tween-80, 19° C.): 6530 ± 60 µg/mL
solubility at 24 h ([3]; aqueous with cosolvent or surfactant or cyclodextrin, Water and 5% Tween-20, 19° C.): 10600 ± 660 µg/mL
solubility at 24 h ([3]; aqueous with cosolvent or surfactant or cyclodextrin, Water and 5% Tween-80, 19° C.): 11500 ± 640 µg/mL
solubility at 24 h ([3]; Distilled water, 19° C.): 6370 ± 310 µg/mL
share of the permeated drug that passed through the nail ([4]; 1 h, 4 %): 8%
share of the total permeated drug which passed through areas surrounding the nail ([4]; 1 h, 4 %): Approximately 92%
nail loading range ([4]; nail and skin applicator): 20 to 90 µg/g
nail loading range ([4]; nail only applicator): 124 to 588 µg/g
MIC (T. rubrum): 4 ng/mL
solubility [5]: > 5000 µg/mL
